In one assay the test system is Puccinia triticina. Nature of the assay: Wheat Brown Rust (PUCCRT) fungicidal activity. The note with it: for pest or weed control at 100 ppm: High Volume application; for pest or weed control at 121.5 g/ha: Low Volume application, 121.5 g/H. In kind it is in vivo. How it is done: (§1) Technical grades of materials were dissolved in acetone, which were then mixed with nine volumes of H2O containing 110 ppm Triton X-100. The fungicide solutions were applied onto wheat seedlings using an automated booth sprayer to run-off. All sprayed plants were allowed to air dry prior to further handling. All fungicides were evaluated using the aforementioned method for their activity vs. all target diseases, unless stated otherwise. Wheat leaf blotch and brown rust activity were also evaluated using track spray applications, in which case the fungicides were formulated as EC formulations, containing 0.1% Trycol 5941 in the spray solutions. Wheat plants (variety Yuma) were grown from seed in a greenhouse in 50% mineral soil/50% soil-less Metro mix until the first leaf was fully emerged, with 7-10 seedlings per pot. These plants were inoculated with an aqueous spore suspension of Zymoseptoria tritici either prior to or after fungicide treatments. After inoculation the plants were kept in 100% relative humidity (one day in a dark dew chamber followed by two to three days in a lighted dew chamber at 20° C.) to permit spores to germinate and infect the leaf. The plants were then transferred to a greenhouse set at 20° C. for disease to develop. When disease symptoms were fully expressed on the 1st leaves of untreated plants, infection levels were assessed on a scale of 0 to 100 percent disease severity. Percent disease control was calculated using the ratio of disease severity on treated plants relative to untreated plants. Example B: Evaluation of Fungicidal Activity: Wheat Brown Rust (Puccinia triticina; Bayer Code PUCCRT) Wheat plants (variety Yuma) were grown from seed in a greenhouse in 50% mineral soil/50% soil-less Metro mix until the first leaf was fully emerged, with 7-10 seedlings per pot. These plants were inoculated with an aqueous spore suspension of Puccinia triticina either prior to or after fungicide treatments. After inoculation the plants were kept in a dark dew room at 22° C. with 100% relative humidity overnight to permit spores to germinate and infect the leaf. The plants were then transferred to a greenhouse set at 24° C. for disease to develop. Fungicide formulation, application and disease assessment followed the procedures as described in the Example A.

Another assay has as its system Zymoseptoria tritici. The experiment in a line: Leaf Blotch of Wheat (SEPTTR) fungicidal activity. The settings on record: wheat leaf blotch; for pest or weed control at 100 ppm: High Volume application; for pest or weed control at 121.5 g/ha: Low Volume application, 121.5 g/H. The class given is in vivo. How it is done: as §1, with “Example A: Evaluation of Fungicidal Activity: Leaf Blotch of Wheat (Zymoseptoria tritici; Bayer Code […]) Technical” for “Technical”, “plants.” for “plants. Example B: Evaluation of Fungicidal Activity: Wheat Brown Rust (Puccinia triticina; Bayer Code PUCCRT) Wheat plants (variety Yuma) were grown from seed in a greenhouse in 50% mineral soil/50% soil-less Metro mix until the first leaf was fully emerged, with 7-10 seedlings per pot. These plants were inoculated with an aqueous spore suspension of Puccinia triticina either prior to or after fungicide treatments. After inoculation the plants were kept in a dark dew room at 22° C. with 100% relative humidity overnight to permit spores to germinate and infect the leaf. The plants were then transferred to a greenhouse set at 24° C. for disease to develop. Fungicide formulation, application and disease assessment followed the procedures as described in the Example A.”

Where [1] appears, read: 24 h, 1 day protectant, read-out: PUCCRT disease control, 1DP (1 Day Protectant).
The mark [2] stands for this setting: 72 h, 3 day curative, read-out: PUCCRT disease control, 3DC (3 Day Curative).
[3] abbreviates: 24 h, 1 day protectant, read-out: SEPTTR disease control, 1DP (1 Day Protectant).
The mark [4] stands for this setting: 72 h, 3 day curative, read-out: SEPTTR disease control, 3DC (3 Day Curative).

Where two headings read alike, the source gives them in different places. A value given as a limit tells only on which side of the number the result lay.

This is an account of results in patent publication US20180002319A1, “MACROCYCLIC PICOLINAMIDE COMPOUNDS WITH FUNGICIDAL ACTIVITY” (DOW AGROSCIENCES LLC, priority 2014, published 2018).

In the case of `COc1ccnc(C(=O)N[C@H]2COCC[C@H](OCc3ccccc3)[C@@H](OCc3ccccc3)[C@H](C)OC2=O)c1OCOC(C)=O` [Compound 1], the pest or weed control at 100 ppm in the assay with Puccinia triticina (setting [1]), in the assay with Puccinia triticina (setting [2]) and with Zymoseptoria tritici (setting [3]) was greater than 80% in each case. In addition, the results for the pest or weed control at 121.5 g/ha in the assay with Puccinia triticina (setting [1]), in the assay on Zymoseptoria tritici (setting [3]) and in the assay on Zymoseptoria tritici (setting [4]) were greater than 80%, greater than 80% and less than 80%, respectively.

For the compound `CCCCO[C@H]1CCOC[C@H](NC(=O)c2nccc(OC)c2OCOC(C)=O)C(=O)O[C@@H](C)[C@@H]1OCC(C)C` [Compound 7], the pest or weed control at 100 ppm with Puccinia triticina (setting [1]) was greater than 80%; with Puccinia triticina (setting [2]), greater than 80%; in the assay with Zymoseptoria tritici (setting [3]) it was greater than 80%; in the assay with Zymoseptoria tritici (setting [4]), less than 80%.

Take `COc1ccnc(C(=O)N[C@H]2CCCC[C@H](OCc3ccccc3)[C@@H](OCc3ccccc3)[C@H](C)OC2=O)c1OCOC(C)=O` [Compound 8]: the pest or weed control at 100 ppm was greater than 80% in the assay on Puccinia triticina (setting [1]), greater than 80% in the assay with Puccinia triticina (setting [2]), greater than 80% with Zymoseptoria tritici (setting [3]) and less than 80% with Zymoseptoria tritici (setting [4]). Besides, the pest or weed control at 121.5 g/ha in the assay on Puccinia triticina (setting [1]), in the assay with Puccinia triticina (setting [2]), in the assay with Zymoseptoria tritici (setting [3]) and in the assay with Zymoseptoria tritici (setting [4]) was greater than 80% each time.

Take `COc1ccnc(C(=O)N[C@H]2CCCC[C@H](OCc3ccccc3)[C@@H](OCc3ccccc3)[C@H](C)OC2=O)c1OC(C)=O` [Compound 9]: the pest or weed control at 100 ppm in the assay with Puccinia triticina (setting [1]) is greater than 80%; with Puccinia triticina (setting [2]), greater than 80%; in the assay with Zymoseptoria tritici (setting [3]) it was greater than 80%; in the assay on Zymoseptoria tritici (setting [4]) it was less than 80%. For the same compound, the pest or weed control at 121.5 g/ha in the assay with Puccinia triticina (setting [1]) is greater than 80%; in the assay with Puccinia triticina (setting [2]), less than 80%; in the assay with Zymoseptoria tritici (setting [3]), greater than 80%; in the assay on Zymoseptoria tritici (setting [4]), greater than 80%.

In the case of `COc1ccnc(C(=O)N[C@H]2CCCC[C@H](Oc3ccccc3)[C@@H](OCC(C)C)[C@H](C)OC2=O)c1OCOC(C)=O` [Compound 10], the pest or weed control at 100 ppm with Puccinia triticina (setting [1]), in the assay on Puccinia triticina (setting [2]), in the assay with Zymoseptoria tritici (setting [3]) and in the assay on Zymoseptoria tritici (setting [4]) was greater than 80% in each case.

In the case of `COc1ccnc(C(=O)N[C@H]2CCCC[C@H](OC)[C@@H](Oc3ccccc3)[C@H](C)OC2=O)c1OCOC(C)=O` [Compound 11], the pest or weed control at 100 ppm in the assay on Puccinia triticina (setting [1]), in the assay on Puccinia triticina (setting [2]), in the assay with Zymoseptoria tritici (setting [3]) and with Zymoseptoria tritici (setting [4]) was greater than 80% in each case. For the same compound, the pest or weed control at 121.5 g/ha in the assay on Puccinia triticina (setting [1]), in the assay with Puccinia triticina (setting [2]), in the assay on Zymoseptoria tritici (setting [3]) and in the assay on Zymoseptoria tritici (setting [4]) was greater than 80% throughout.

As for `COc1ccnc(C(=O)N[C@H]2CCCC[C@H](OC)[C@@H](OCC(C)C)[C@H](C)OC2=O)c1OCOC(C)=O` [Compound 12], the pest or weed control at 100 ppm with Puccinia triticina (setting [1]), with Puccinia triticina (setting [2]), in the assay with Zymoseptoria tritici (setting [3]) and with Zymoseptoria tritici (setting [4]) was greater than 80% each time.

For `COc1ccnc(C(=O)N[C@H]2CCCC[C@H](OCC(C)C)[C@@H](Oc3ccccc3)[C@H](C)OC2=O)c1OCOC(C)=O` [Compound 13], the pest or weed control at 100 ppm in the assay on Puccinia triticina (setting [1]), in the assay with Puccinia triticina (setting [2]), in the assay on Zymoseptoria tritici (setting [3]) and with Zymoseptoria tritici (setting [4]) was greater than 80% throughout. Moreover, the pest or weed control at 121.5 g/ha with Puccinia triticina (setting [1]), in the assay on Puccinia triticina (setting [2]), in the assay on Zymoseptoria tritici (setting [3]) and with Zymoseptoria tritici (setting [4]) was greater than 80% throughout.

For the compound `COc1ccnc(C(=O)N[C@H]2CCCC[C@H](OCC(C)C)[C@@H](OCC(C)C)[C@H](C)OC2=O)c1OCOC(C)=O` [Compound 14], the pest or weed control at 100 ppm in the assay on Puccinia triticina (setting [1]), with Puccinia triticina (setting [2]), in the assay on Zymoseptoria tritici (setting [3]) and in the assay on Zymoseptoria tritici (setting [4]) was greater than 80% throughout. Besides, the pest or weed control at 121.5 g/ha in the assay with Puccinia triticina (setting [1]) was greater than 80%; in the assay on Puccinia triticina (setting [2]) it was less than 80%; in the assay with Zymoseptoria tritici (setting [3]), greater than 80%; with Zymoseptoria tritici (setting [4]) it was less than 80%.

With `CCCCCO[C@H]1[C@H](C)OC(=O)[C@@H](NC(=O)c2nccc(OC)c2OCOC(C)=O)CCCC[C@@H]1OC(=O)c1ccccc1` [Compound 15], the pest or weed control at 100 ppm in the assay on Puccinia triticina (setting [1]), in the assay on Puccinia triticina (setting [2]), with Zymoseptoria tritici (setting [3]) and in the assay on Zymoseptoria tritici (setting [4]) was greater than 80% each time. The pest or weed control at 121.5 g/ha was greater than 80% in the assay with Puccinia triticina (setting [1]), less than 80% in the assay on Puccinia triticina (setting [2]), greater than 80% in the assay on Zymoseptoria tritici (setting [3]) and greater than 80% in the assay with Zymoseptoria tritici (setting [4]).

With `COc1ccnc(C(=O)N[C@H]2CCOC[C@H](Cc3ccccc3)[C@@H](OCC(C)C)[C@H](C)OC2=O)c1OCOC(C)=O` [Compound 16], the pest or weed control at 100 ppm in the assay on Puccinia triticina (setting [1]) is greater than 80%; in the assay with Puccinia triticina (setting [2]), greater than 80%; with Zymoseptoria tritici (setting [3]) it was greater than 80%; in the assay on Zymoseptoria tritici (setting [4]), less than 80%. Further, the pest or weed control at 121.5 g/ha was greater than 80% with Puccinia triticina (setting [1]), less than 80% in the assay with Puccinia triticina (setting [2]), less than 80% in the assay with Zymoseptoria tritici (setting [3]) and less than 80% with Zymoseptoria tritici (setting [4]).

Take `COc1ccnc(C(=O)N[C@H]2CCCC[C@H](OC)[C@@H](OC)[C@H](C)OC2=O)c1OCOC(C)=O` [Compound 22]: the results for the pest or weed control at 121.5 g/ha in the assay with Puccinia triticina (setting [1]), in the assay with Puccinia triticina (setting [2]) and with Zymoseptoria tritici (setting [4]) were greater than 80%, greater than 80% and less than 80%, respectively.

On to `CCCO[C@H]1CCCC[C@H](NC(=O)c2nccc(OC)c2OCOC(C)=O)C(=O)O[C@@H](C)[C@@H]1Oc1ccccc1` [Compound 23], for which the pest or weed control at 121.5 g/ha in the assay on Puccinia triticina (setting [1]), in the assay with Puccinia triticina (setting [2]), with Zymoseptoria tritici (setting [3]) and with Zymoseptoria tritici (setting [4]) was greater than 80% each time.

For `COc1ccnc(C(=O)N[C@H]2CCCC[C@H](Cc3ccccc3)[C@@H](OCC(C)C)[C@H](C)OC2=O)c1OCOC(C)=O` [Compound 24], the pest or weed control at 121.5 g/ha was greater than 80% in the assay with Puccinia triticina (setting [1]), less than 80% in the assay with Puccinia triticina (setting [2]), greater than 80% in the assay on Zymoseptoria tritici (setting [3]) and greater than 80% in the assay with Zymoseptoria tritici (setting [4]).

For `COc1ccnc(C(=O)N[C@H]2CCCC[C@H](Oc3ccccc3)[C@@H](Oc3ccccc3)[C@H](C)OC2=O)c1OC(C)=O` [Compound 25], the pest or weed control at 121.5 g/ha was greater than 80% in the assay on Puccinia triticina (setting [1]), less than 80% in the assay with Puccinia triticina (setting [2]), greater than 80% in the assay with Zymoseptoria tritici (setting [3]) and less than 80% with Zymoseptoria tritici (setting [4]).

Regarding `COc1ccnc(C(=O)N[C@H]2CCCC[C@H](OC3CCCC3)[C@@H](OC)[C@H](C)OC2=O)c1OCOC(C)=O` [Compound 35], the pest or weed control at 121.5 g/ha is greater than 80% in the assay on Puccinia triticina (setting [1]) and less than 80% with Puccinia triticina (setting [2]).

As for `COc1ccnc(C(=O)N[C@H]2CCOC[C@H](OCC(C)C)[C@@H](OCC(C)C)[C@H](C)OC2=O)c1OCOC(C)=O` [Compound 43], the pest or weed control at 121.5 g/ha in the assay on Puccinia triticina (setting [1]) is greater than 80%; in the assay with Puccinia triticina (setting [2]), less than 80%.

With `COc1ccnc(C(=O)N[C@H]2CCCC[C@H](OC)[C@@H](OC)[C@H](C)OC2=O)c1O` [Compound 99], the pest or weed control at 100 ppm with Puccinia triticina (setting [1]) is greater than 80%.
